Test results taken from the NIST ThermoML archive (doi:10.1021/je800637t).

Legend:
[1] = refractive index (Na D-line) (dimensionless); mn = molality of the nth substance listed, in mol/kg; conditions: 100.8 kPa, Liquid, Standard Abbe refractometry
[2] = mn = molality of the nth substance listed, in mol/kg; conditions: 100.8 kPa, Liquid; for viscosity: Cone and plate viscometry; for electrical conductivity: Kyoto model CM-117 conductivity meter; for mass density: Vibrating tube method

O=[N+]([O-])[O-].[K+] [potassium nitrate] + O
Conditions | electrical conductivity, [2] [S/m] | mass density, [2] [kg/m3] | refractive index, [1] | viscosity, [2] [mPa·s]
298.15 K, m1 = 0.3799 | 0.000381 | 1020.03 | 1.33593 | 0.879
298.15 K, m1 = 0.76 | 0.000705 | 1041.91 | 1.33907 | 0.87
298.15 K, m1 = 1.14 | 0.000985 | 1062.91 | 1.34205 | 0.869
298.15 K, m1 = 1.52 | 0.00122 | 1083.04 | 1.34488 | 0.872
298.15 K, m1 = 1.9 | 0.00144 | 1102.4 | 1.34751 | 0.881
298.15 K, m1 = 2.28 | 0.00162 | 1121.03 | 1.35009 | 0.889
298.15 K, m1 = 2.66 | 0.00179 | 1139.02 | 1.35253 | 0.901
298.15 K, m1 = 3.04 | 0.00194 | 1156.32 | 1.35479 | 0.914
298.15 K, m1 = 3.42 | 0.00211 | 1173.06 | 1.35704 | 0.931
298.15 K, m1 = 3.821 | 0.00223 | 1189.24 | 1.35915 | 0.95
313.15 K, m1 = 0.3799 | 0.000528 | 1014.52 | 1.33384 | 0.652
313.15 K, m1 = 0.76 | 0.000954 | 1035.85 | 1.33687 | 0.654
313.15 K, m1 = 1.14 | 0.00129 | 1056.36 | 1.33975 | 0.657
313.15 K, m1 = 1.52 | 0.00159 | 1076.08 | 1.34248 | 0.665
313.15 K, m1 = 1.9 | 0.00184 | 1095.07 | 1.345 | 0.673
313.15 K, m1 = 2.28 | 0.00208 | 1113.37 | 1.34761 | 0.682
313.15 K, m1 = 2.66 | 0.00227 | 1131.04 | 1.34991 | 0.693
313.15 K, m1 = 3.04 | 0.00248 | 1148.05 | 1.35227 | 0.703
313.15 K, m1 = 3.42 | 0.00263 | 1164.53 | 1.35443 | 0.716
313.15 K, m1 = 3.8 | 0.00278 | 1180.49 | 1.35643 | 0.733
313.15 K, m1 = 4.581 | 0.00308 | 1211.11 | 1.36051 | 0.76
313.15 K, m1 = 5.341 | 0.0033 | 1239.46 | 1.36426 | 0.803
313.15 K, m1 = 6.273 | 0.00357 | 1271.3 | 1.36812 | 0.844
